The values below come from ChEMBL document CHEMBL1201862, “PubChem BioAssay data set” (2004).

For one test, the target named is T1, Caspase-6 (Homo sapiens, UniProt P55212).
T1 sequence (P55212 whole entry): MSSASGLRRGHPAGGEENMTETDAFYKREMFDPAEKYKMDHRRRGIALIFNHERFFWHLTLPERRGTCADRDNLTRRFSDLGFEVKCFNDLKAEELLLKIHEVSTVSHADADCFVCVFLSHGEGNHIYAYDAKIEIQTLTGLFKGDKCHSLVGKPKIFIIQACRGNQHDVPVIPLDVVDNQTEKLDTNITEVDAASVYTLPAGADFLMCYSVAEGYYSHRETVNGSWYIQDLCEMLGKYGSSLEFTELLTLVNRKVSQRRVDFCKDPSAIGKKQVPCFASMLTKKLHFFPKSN
The test is described as follows: inhibition of CASP6 peptide cleavage – biochemical, VEID-R110 fluorescence, dry powder retest, dose response (AID 743332).

Test [1] is described as follows: activation of miR-122 Renilla sensor silencing – cell-based, Huh7 psiCHECK-miR122, Renilla luciferase, cherry-picked, dose response (AID 651956).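 Further: huh7 hepatoma cells stably carrying a psiCHECK-2 miR-122 sensor plasmid; renilla luciferase signal reporting endogenous miR-122 activity after 48 h compound exposure.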 The test is classed as functional.
Test [2] in a line: HGIII-sPLA2 enzyme inhibition potency – biochemical, QFRET, IC50, dose response (AID 743457).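 Further: green fluorescence rise as the enzyme cleaves BODIPY PC-A2 in liposomes.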
The nature of test [3]: inhibition of bursicon-driven LGR2 cAMP signaling – cell-based, HEK293, CRE-luciferase reporter, cherry pick, dose response (AID 743342). The test is classed as functional. A general note: A reporter such as luciferase makes a cellular process visible.
Test [4] is described as follows: viability loss in HepG2 hepatoma cells – cell-based, cherry-picks, set 5, cytotoxicity control, dose response (AID 1053118). The test is classed as functional.
Test [5] can be described thus: viability loss in HEK293 kidney cells – cell-based, cherry-picks, set 5, cytotoxicity control, dose response (AID 1053117). The test is classed as functional.
In test [6] the target is T2, Short transient receptor potential channel 4 (Mus musculus, UniProt Q9QUQ5).
T2 sequence (Q9QUQ5 whole entry): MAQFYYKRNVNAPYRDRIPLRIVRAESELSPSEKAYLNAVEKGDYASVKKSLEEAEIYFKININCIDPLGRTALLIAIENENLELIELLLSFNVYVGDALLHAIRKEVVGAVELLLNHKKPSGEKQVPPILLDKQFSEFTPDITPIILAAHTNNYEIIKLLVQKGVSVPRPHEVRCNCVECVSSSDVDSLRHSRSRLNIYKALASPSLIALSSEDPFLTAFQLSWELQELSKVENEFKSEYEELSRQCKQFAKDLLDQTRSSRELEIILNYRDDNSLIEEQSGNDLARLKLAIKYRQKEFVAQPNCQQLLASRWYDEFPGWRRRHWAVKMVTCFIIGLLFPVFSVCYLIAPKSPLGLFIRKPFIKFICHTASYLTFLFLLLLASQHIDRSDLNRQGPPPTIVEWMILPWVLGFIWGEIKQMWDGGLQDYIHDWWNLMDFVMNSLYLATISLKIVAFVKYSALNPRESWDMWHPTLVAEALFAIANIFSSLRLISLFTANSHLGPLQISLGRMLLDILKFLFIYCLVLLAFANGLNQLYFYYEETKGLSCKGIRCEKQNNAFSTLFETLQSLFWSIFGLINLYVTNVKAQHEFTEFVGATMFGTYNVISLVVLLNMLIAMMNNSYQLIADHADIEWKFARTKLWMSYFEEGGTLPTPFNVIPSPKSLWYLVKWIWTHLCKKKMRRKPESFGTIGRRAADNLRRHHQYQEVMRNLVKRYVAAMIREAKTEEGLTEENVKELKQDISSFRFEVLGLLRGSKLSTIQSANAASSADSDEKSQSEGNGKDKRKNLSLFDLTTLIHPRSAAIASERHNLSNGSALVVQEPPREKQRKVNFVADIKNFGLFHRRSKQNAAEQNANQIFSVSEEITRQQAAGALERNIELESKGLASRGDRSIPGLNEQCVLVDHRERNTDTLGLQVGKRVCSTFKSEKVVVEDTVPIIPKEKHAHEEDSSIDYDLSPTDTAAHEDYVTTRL
The test is described as follows: block of DAMGO-driven TRPC4 calcium entry – cell-based, HEK293 TRPC4/mu-opioid, Fluo-4 calcium, dose response (AID 434942).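 Further: potency of inhibitors blocking the TRPC4 calcium response.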 The test is classed as functional.

The target in test [7] is SWI/SNF-related matrix-associated actin-dependent regulator of chromatin subfamily A member 2 (Homo sapiens, UniProt P51531). The test is described as follows: Luminescence-based cell-based high throughput dose response assay to identify activators of the function of SWI/SNF related, matrix associated, actin dependent regulator of chromatin, subfamily a, member 2 (SMARCA2, BRM). The test is classed as functional.

A short description of test [8]: Counterscreen for activators of the function of SWI/SNF related, matrix associated, actin dependent regulator of chromatin, subfamily a, member 2 (SMARCA2, BRM): Luminescence-based cell-based high throughput dose response assay to identify non-selective compounds using the VP16 reporter assay. The test is classed as functional. A general note: Counterscreens check selectivity or assay interference.

For the next test, the system named is P388/ADR. The test is described as follows: cells. The test is classed as functional. The settings on record: Mus musculus.
For another test, the system named is SN12K1. The test is described as follows: cells. The test is classed as functional. The settings on record: Homo sapiens.
The next test has as its system P388. The test is described as follows: cells. The test is classed as functional. The settings on record: Mus musculus.
Test [9] is described as follows: cytotoxicity in untransfected HEK293T cells – cell-based, CellTiter-Glo luminescence, dry powder, counter-screen for EBV LMP1 inhibitor project, dose response (AID 624372). The test is classed as functional, HEK293. (In general: Cellular ATP, detected with luciferase, serves as a proxy for viable cell number.)

Calls of active or inactive are those of the source.

Chain of SWI/SNF-related matrix-associated actin-dependent regulator of chromatin subfamily A member 2 (P51531 whole entry): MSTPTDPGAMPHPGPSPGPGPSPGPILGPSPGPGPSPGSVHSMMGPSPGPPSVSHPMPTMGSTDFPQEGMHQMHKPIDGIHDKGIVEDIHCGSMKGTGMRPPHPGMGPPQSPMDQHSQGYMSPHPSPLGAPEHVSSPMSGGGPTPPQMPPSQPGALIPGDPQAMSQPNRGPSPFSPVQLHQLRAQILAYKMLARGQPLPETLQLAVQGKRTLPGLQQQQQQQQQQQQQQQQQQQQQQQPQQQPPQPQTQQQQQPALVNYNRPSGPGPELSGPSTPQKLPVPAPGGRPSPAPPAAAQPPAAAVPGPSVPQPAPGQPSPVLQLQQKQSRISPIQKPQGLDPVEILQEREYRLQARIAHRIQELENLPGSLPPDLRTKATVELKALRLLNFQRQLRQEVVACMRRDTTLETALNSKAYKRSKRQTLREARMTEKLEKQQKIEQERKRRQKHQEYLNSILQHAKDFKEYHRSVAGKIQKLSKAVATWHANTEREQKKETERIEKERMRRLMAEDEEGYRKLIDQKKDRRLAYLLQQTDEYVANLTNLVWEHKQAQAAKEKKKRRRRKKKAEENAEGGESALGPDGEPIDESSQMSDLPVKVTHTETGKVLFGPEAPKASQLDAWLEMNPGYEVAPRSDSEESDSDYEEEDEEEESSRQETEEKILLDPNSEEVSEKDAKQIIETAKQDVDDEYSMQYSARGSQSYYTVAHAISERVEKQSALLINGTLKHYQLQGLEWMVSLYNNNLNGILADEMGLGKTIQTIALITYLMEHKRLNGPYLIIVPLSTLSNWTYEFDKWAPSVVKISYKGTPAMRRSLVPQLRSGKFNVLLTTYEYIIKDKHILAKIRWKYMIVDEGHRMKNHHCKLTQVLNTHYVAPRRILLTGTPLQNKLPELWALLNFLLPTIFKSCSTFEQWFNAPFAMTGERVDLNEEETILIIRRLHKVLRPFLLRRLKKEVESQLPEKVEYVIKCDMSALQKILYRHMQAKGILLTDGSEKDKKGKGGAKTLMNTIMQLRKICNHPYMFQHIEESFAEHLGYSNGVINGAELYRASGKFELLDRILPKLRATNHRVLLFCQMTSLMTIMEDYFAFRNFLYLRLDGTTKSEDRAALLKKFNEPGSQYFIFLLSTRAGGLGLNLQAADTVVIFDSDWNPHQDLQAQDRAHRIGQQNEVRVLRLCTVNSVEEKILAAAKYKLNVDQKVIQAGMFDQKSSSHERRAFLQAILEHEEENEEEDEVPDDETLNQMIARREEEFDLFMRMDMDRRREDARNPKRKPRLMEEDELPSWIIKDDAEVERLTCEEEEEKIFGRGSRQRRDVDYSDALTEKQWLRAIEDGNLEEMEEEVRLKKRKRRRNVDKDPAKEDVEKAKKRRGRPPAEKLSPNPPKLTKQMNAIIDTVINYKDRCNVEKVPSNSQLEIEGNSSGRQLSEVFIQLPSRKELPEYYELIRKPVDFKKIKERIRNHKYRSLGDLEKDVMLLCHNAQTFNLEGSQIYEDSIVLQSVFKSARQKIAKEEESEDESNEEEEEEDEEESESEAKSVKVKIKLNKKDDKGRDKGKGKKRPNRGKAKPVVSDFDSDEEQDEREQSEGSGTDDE

By AC50 is commonly meant the midpoint of the concentration-response curve, whichever way the signal moves. In the case of `O=C(c1ccc(-n2cccc2)cc1)N1CCN(S(=O)(=O)c2ccccc2)CC1`, the AC50 on Caspase-6 was 23.9 µM (active). As to `C[C@H](CO)N1C[C@H](C)[C@H](CN(C)CC2CCCCC2)OCCCC[C@H](C)Oc2ccc(NC(=O)Nc3cccc4ccccc34)cc2C1=O`, in [1], the AC50 is 3.25 µM (active). What is called IC50 is the point on the concentration scale where inhibition reaches its midpoint. For the compound `Cc1cccc(NC(=O)NNC(=O)c2ccc3ccccc3c2O)c1`, the IC50 in test [2] is > 122 µM (inactive).

In the case of `C[C@H](CO)N1C[C@H](C)[C@H](CN(C)C(=O)Nc2ccc3c(c2)OCO3)OCCCC[C@H](C)Oc2ccc(NC(=O)NC3CCCCC3)cc2C1=O`, in [3], the AC50 is 9.97 µM (active). For the compound `C[C@@H]1CN([C@@H](C)CO)C(=O)c2cc(-c3ccccc3)cnc2O[C@H]1CN(C)Cc1ccccc1`, the AC50 in test [4] and in test [5] was > 52 µM (inactive) each time.

The EC50 is the concentration that produces a half-maximal response. In the case of `Cn1cc(-c2nc3ccccc3[nH]2)c2ccccc21`, the EC50 was 3.76 µM (active) in test [6], > 91.2 µM (inactive) in [7] and > 91.2 µM (inactive) in test [8]. Usually GI50 stands for the concentration that inhibits growth by half. On to `C/C(=N\NC(=S)N1CCN(C2CCCCCC2)CC1)c1ccccn1`, for which the GI50 in the test with P388/ADR was < 0.01 µM (active); in the test on SN12K1, 0.01 µM (active); in the test on P388 it was < 0.01 µM (active). Moreover, the AbsAC35 in [9] came out at 162.11 µM.
